Consider two molecules from patent US8338141B2, “Methionine recovery processes” (Novus International, Inc., priority 2003, dated 2012).

For data set [1] the following is noted: for concentration of methionine remaining in the supernatant (mother liquor): buffer, 18 h. Here is the method:
To the cell free broth containing the solubilized L-methionine, sulfuric acid (96% w/w) was added and its pH lowered to […], the isoelectric point of L-methionine. […] The slurry was then stored overnight at 4° C. to allow for precipitation of the crystals. The slurry was then centrifuged to collect the methionine crystals.
At pH of 1.68, cells from the slurried fermenter broth were separated first by centrifugation followed by filtration through a 0.45 micron filter. The pH of the filtrate was then raised to 5.75, the isoelectric point of methionine by addition of 50% NaOH, resulting in formation of L-methionine crystals. The slurry was placed in a refrigerator at 4° C. for 18 hours to allow for additional crystallization of methionine. The crystals were then removed by centrifugation and filtration and further dried on a lyophilizer. The dried crystals were harvested from the lyophilizer. […] Crystals were collected by centrifugation at 4° C. by using a pre-chilled centrifuge.
For optimal recovery of methionine, solids from the acidified slurry above were removed by centrifugation and filtration and the pH of the recovered filtrate was raised to 5.6 using NaOH. […] This solution was placed again in the refrigerator at 4° C. for 18 hours to allow for formation of additional methionine crystals. Crystals formed after 18 hours at 4° C. were filtered and dried in a lyophilizer.

Another data set is described as follows: physchem. The following applies: thermodynamic from solid.
Data set [2] can be described thus: soluble methionine concentration in the filtrate of L-methionine-supplemented fermentation broth slurry, by HPLC after centrifugation and filtration.
Procedure: (§1) The pH of the slurry was measured to be 5.54. A well-mixed sample of this slurry was drawn, and solids removed from the sample by centrifugation followed by filtration.
(§2) From a well-mixed sample of this slurry, solids were removed as before by centrifugation and filtration. […] At this point, the whole cells were separated from the methionine and fermentation solubles by centrifugation.
(§3) Methionine was added to the fermentation broth at a concentration of 56 g/L. In addition to soluble methionine, the slurry had insoluble methionine, microbial cells and components of fermentation media. 50% NaOH was added to the slurry at a concentration equal to 0.5 eq. weight of methionine. […] A sample of the slurry was removed and filtered as previously described.
(§4) Methionine was added to fermentation broth at a concentration of 77 g/L. The slurry was then heated to 70° C. without pH adjustment. This slurry was then filtered through a 0.45 micron filter in a heated filtration unit to remove the whole cells and other insoluble fermentation broth components. The filtrate was collected and analyzed for methionine.
(§5) Concentrated sulfuric acid (H2SO4, 96% w/w) was added in a concentration equal to 1 equivalent weight of methionine to the slurry, lowering the pH of the slurry to 2.49. Methionine concentration was measured from a sample after centrifugation and filtration as previously described.
(§6) H2SO4 (96% w/w) at a concentration of 1 equivalent weight of methionine was added to this slurry, decreasing the pH of the broth to 2.39.
The conditions of data set [3]: 25° C., Merck Index 12th Edition 1996; cited from earlier work.

In brackets after ≈: the same amount, converted by molar mass. Where two headings read alike, the source gives them in different places.

Procedure for physchem: as §1, §2, §3, §4, §5, §6

A word on the solubility: it is the dissolved amount per volume that the medium holds. A lower solubility goes with a poorly soluble substance. For `CSCC[C@H](N)C(=O)O` [L-methionine], the figures for the “concentration of methionine remaining in the supernatant (mother liquor)” value in data set [1] (pH 5.6) and in data set [1] (pH 5.75) were 39500 µg/mL and 47200 µg/mL, respectively. In addition, the “concentration of methionine remaining in the supernatant” value in data set [1] (pH 5.95) was 33000 µg/mL. The solubility in the data set “physchem” (22 °C, pH 5.54, plasma or biological fluid) came out at 38 mg/mL (≈ 255 mM); in the data set “physchem” (pH 2.39, plasma or biological fluid), 55 mg/mL (≈ 369 mM); in “physchem” (pH 2.49, plasma or biological fluid), 75 mg/mL (≈ 503 mM); in “physchem” (pH 8.92, plasma or biological fluid) it was 58 mg/mL (≈ 389 mM); in the data set “physchem” (pH 9.36, plasma or biological fluid), 78 mg/mL (≈ 523 mM). In addition, the “solubility of methionine in fermentation broth” value in data set [2] (22° C., no pH adjustment) is 38 mg/mL. The “solubility of methionine in the solution versus pH 9.36” value in data set [2] (NaOH 2 equivalent weight, pH 10.22) is given as “unchanged”. In addition, the “solubility of L-methionine versus lower NaOH levels” value in data set [2] (NaOH 2.5 equivalent weight, pH 12.53) is given as “did not further increase”. Further, the “concentration of methionine in the filtrate” value in data set [2] (slurry with 56 g/L methionine, NaOH 1 eq weight, pH 9.38) was found to be 56000 µg/mL; in data set [2] (slurry with 77 g/L methionine, heated to 70° C., no pH adjustment, 0.45 micron filter), 74600 µg/mL. Moreover, the additional methionine solubilized result in data set [2] (slurry with 56 g/L methionine, NaOH 1.5, 2 and 2.5 eq wt, pH 9.82, 10.47 and 12.23) is “No additional methionine was solubilized”.
Regarding `CSCCC(N)C(=O)O` (racemic) [DL-methionine], the water solubility in data set [3] is 33.81 mg/mL (≈ 227 mM).
